Assay results reported in patent US8846652B2, “Therapeutic uses of steroidal compounds” (Hunter-Fleming Limited, priority 2005, dated 2014).
Peptide text beside a SMILES is read from it.

What was measured:
[1] = biological target: T1, GALR1 (Homo sapiens, UniProt P47211); conditions: cited from earlier work
T1 sequence (P47211 1-349): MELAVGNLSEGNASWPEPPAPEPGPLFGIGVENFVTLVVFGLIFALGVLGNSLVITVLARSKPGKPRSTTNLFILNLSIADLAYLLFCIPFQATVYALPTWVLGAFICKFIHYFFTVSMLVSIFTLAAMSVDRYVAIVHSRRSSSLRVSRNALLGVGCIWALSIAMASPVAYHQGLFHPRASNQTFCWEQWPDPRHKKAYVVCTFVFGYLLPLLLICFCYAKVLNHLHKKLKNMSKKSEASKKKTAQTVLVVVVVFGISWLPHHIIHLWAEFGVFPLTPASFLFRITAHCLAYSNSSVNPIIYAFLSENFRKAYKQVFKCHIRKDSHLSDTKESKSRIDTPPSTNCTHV

[2] = biological target: T2, GALR2 (Homo sapiens, UniProt O43603); conditions: cited from earlier work
T2 sequence (O43603 1-387): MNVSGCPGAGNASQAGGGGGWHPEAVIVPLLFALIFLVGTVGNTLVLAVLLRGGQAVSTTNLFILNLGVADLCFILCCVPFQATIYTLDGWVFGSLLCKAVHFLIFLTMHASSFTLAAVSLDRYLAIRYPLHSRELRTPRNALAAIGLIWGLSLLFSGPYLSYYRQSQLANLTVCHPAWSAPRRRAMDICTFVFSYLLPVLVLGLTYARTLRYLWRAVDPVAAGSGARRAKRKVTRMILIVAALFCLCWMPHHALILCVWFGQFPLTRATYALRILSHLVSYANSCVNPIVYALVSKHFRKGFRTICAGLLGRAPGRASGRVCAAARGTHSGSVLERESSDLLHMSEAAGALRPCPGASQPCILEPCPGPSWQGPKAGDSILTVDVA

[3] = tested on: spared nerve injury (SNI) model of neuropathic pain; test: Spared nerve injury (SNI) model of neuropathic pain, mechanical allodynia by von Frey filaments; assay type: in vivo, mice; conditions: daily oral gavage for two weeks, SNI lesion on day 8, thresholds measured at 2 pm over 7 days after SNI surgery
Protocol: All animals were fed standard chow and water ad libitum. Animal care and procedures were performed within the United Kingdom Home Office protocols and guidelines. Age (10-12 weeks, 25-30 g) matched adult mice were used in all experiments (n=8/genotype).
Mice were anaesthetised with Hypnorm (Fentanyl citrate 0.315 mg/ml+Fluanisone 10 mg/ml, Jansson):Hypnovel (Midazolam 5 mg/ml, Roche):water at a ratio of 1:1:2 at 4 μl/g. The recently described SNI model of neuropathic pain was used (Holmes et al (2003) Proc. Natl. Acad. Sci. U.S.A. 100 6180-6185). The spared nerve injury model (SNI), is performed by ligation of two branches of the sciatic nerve after it trifurcates, leaving one branch intact. […]
In all tests, the examiner was blind to the genotype of the mice. Mechanical thresholds were measured with a series of calibrated von Frey filaments (Stoeling) from 0.005 g to a maximum of 3.63 g. […] Mechanical sensitivity was assessed on each hind paw, employing the up-down testing paradigm to determine the threshold force required to elicit a withdrawal response to 50% of stimulations [F. E. Holmes, A. Bacon, R. J. Pope, P. A. Vanderplank, N. C. […]
11β-hydroxy-Δ4-androstene-3,17-dione was administered to 8 adult male mice aged 10-12 weeks of age daily at 9.00 am by oral gavage for two weeks. […] At 2 pm on the days when testing took place, mechanosensory thresholds were measured.

Cc1cc(=O)oc2cc(NC(=O)[C@H](CCCCN)NC(=O)[C@H](CC3CCCCC3)NC(=O)OCC3c4ccccc4-c4ccccc43)ccc12 [galnon] (HELM PEPTIDE1{[O=C(OCC1c2ccccc2-c2ccccc21)[*:2]].[Cha].K.[Cc1cc(=O)oc2cc(N[*:1])ccc12]}$$$$V2.0)
agonistic activity at GALR1 [1]: equally activates and has agonistic activity | agonistic activity at GALR2 [2]: equally activates and has agonistic activity

C[C@]12CCC(=O)C=C1CC[C@@H]1[C@@H]2[C@@H](O)C[C@]2(C)C(=O)CC[C@@H]12 [11β-hydroxy-Δ4-androstene-3,17-dione]
mechanosensory allodynia (chronic pain behaviour) after SNI surgery [3]: markedly and significantly attenuated mechanosensory allodynia
